Tested on: MOLM-13 cells
Assay: MOLM-13 Cell Proliferation Assay (indicator of DHODH inhibition)
Type: cell-based
Conditions: Homo sapiens, 72 Hours of culture, CellTiter-Glo, no uridine
In short: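 Low-passage MOLM-13 cells (10^4/well) in RPMI 1640 + 10% FBS exposed to compound (0.5% DMSO final) for 72 h at 37 °C, 5% CO2. Viability read by CellTiter-Glo luminescence; growth reflects de novo pyrimidine synthesis dependent on DHODH.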

SMILES	IC50
Cc1ccc(C2c3[nH]c4cc(F)c(Cl)cc4c3CCN2c2ncc(Cl)cn2)c(F)c1F (stereo not shown) [Compound 130, 6-chloro-2-(5-chloropyrimidin-2-yl)-1-(2,3-difluoro-4-methylphenyl)-7-fluoro-2,3,4,9-tetrahydro-1H-pyrido[3,4-b]indole]	5.8 nM
Fc1cc2[nH]c3c(c2cc1Cl)CCN(c1ncc(Cl)cn1)C3c1cccc(F)c1F (stereo not shown) [Compound 131, 6-chloro-2-(5-chloropyrimidin-2-yl)-1-(2,3-difluorophenyl)-7-fluoro-2,3,4,9-tetrahydro-1H-pyrido[3,4-b]indole]	9.2 nM
Cc1cc(C)nc(N2CCc3c([nH]c4cc(F)c(Cl)cc34)C2c2ccc(C)c(F)c2F)n1 (stereo not shown) [Compound 132, 6-chloro-1-(2,3-difluoro-4-methylphenyl)-2-(4,6-dimethylpyrimidin-2-yl)-7-fluoro-2,3,4,9-tetrahydro-1H-pyrido[3,4-b]indole]	2.1 nM
Fc1cc2[nH]c3c(c2cc1Cl)CCN(c1ncc(C(F)(F)F)cn1)C3c1cccc(F)c1F (stereo not shown) [Compound 133, 6-chloro-1-(2,3-difluorophenyl)-7-fluoro-2-[5-(trifluoromethyl)pyrimidin-2-yl]-2,3,4,9-tetrahydro-1H-pyrido[3,4-b]indole]	11.2 nM
Cc1ccc(C2c3[nH]c4cc(F)c(Cl)cc4c3CCN2c2ncc(C)cn2)cc1 (stereo not shown) [Compound 134, 6-chloro-7-fluoro-1-(4-methylphenyl)-2-(5-methylpyrimidin-2-yl)-2,3,4,9-tetrahydro-1H-pyrido[3,4-b]indole]	21.7 nM
Cc1ccc(C2c3[nH]c4ccc(Cl)c(F)c4c3CCN2c2ncc(C)cn2)cc1 (stereo not shown) [Compound 135, 6-chloro-5-fluoro-1-(4-methylphenyl)-2-(5-methylpyrimidin-2-yl)-2,3,4,9-tetrahydro-1H-pyrido[3,4-b]indole]	10.2 nM
Cc1cnc(N2CCc3c([nH]c4cc(F)c(Cl)cc34)C2c2ccc(C)c(F)c2F)nc1 (stereo not shown) [Compound 136, 6-chloro-1-(2,3-difluoro-4-methylphenyl)-7-fluoro-2-(5-methylpyrimidin-2-yl)-2,3,4,9-tetrahydro-1H-pyrido[3,4-b]indole]	7.5 nM
Cc1cnc(N2CCc3c([nH]c4ccc(Cl)c(F)c34)C2c2ccc(C)c(F)c2F)nc1 (stereo not shown) [Compound 137, 6-chloro-1-(2,3-difluoro-4-methylphenyl)-5-fluoro-2-(5-methylpyrimidin-2-yl)-2,3,4,9-tetrahydro-1H-pyrido[3,4-b]indole]	2.4 nM
Cc1ccc(C2c3[nH]c4cc(F)c(Cl)cc4c3CCN2c2ncc(F)cn2)c(F)c1F (stereo not shown) [Compound 138, 6-chloro-1-(2,3-difluoro-4-methylphenyl)-7-fluoro-2-(5-fluoropyrimidin-2-yl)-2,3,4,9-tetrahydro-1H-pyrido[3,4-b]indole]	3.5 nM
Cc1ccnc(N2CCc3c([nH]c4cc(F)c(Cl)cc34)C2c2ccc(C)c(F)c2F)n1 (stereo not shown) [Compound 139, 6-chloro-1-(2,3-difluoro-4-methylphenyl)-7-fluoro-2-(4-methylpyrimidin-2-yl)-2,3,4,9-tetrahydro-1H-pyrido[3,4-b]indole]	3.6 nM
Cc1ccc(C2c3[nH]c4cc(F)c(Cl)cc4c3CCN2c2nccc(C(F)(F)F)n2)c(F)c1F (stereo not shown) [Compound 140, 6-chloro-1-(2,3-difluoro-4-methylphenyl)-7-fluoro-2-[4-(trifluoromethyl)pyrimidin-2-yl]-2,3,4,9-tetrahydro-1H-pyrido[3,4-b]indole]	1 nM
Cc1ccc(C2c3[nH]c4cc(F)c(Cl)cc4c3CCN2c2nccc(C#N)n2)c(F)c1F (stereo not shown) [Compound 141, 2-[6-chloro-1-(2,3-difluoro-4-methylphenyl)-7-fluoro-1,3,4,9-tetrahydro-2H-pyrido[3,4-b]indol-2-yl]pyrimidine-4-carbonitrile]	8.7 nM
Cc1ccc(C2c3[nH]c4cc(F)c(Cl)cc4c3CCN2c2ncc(C(F)(F)F)cn2)c(F)c1F (stereo not shown) [Compound 142, 6-chloro-1-(2,3-difluoro-4-methylphenyl)-7-fluoro-2-[5-(trifluoromethyl)pyrimidin-2-yl]-2,3,4,9-tetrahydro-1H-pyrido[3,4-b]indole]	4.3 nM
Cc1ccc(C2c3[nH]c4cc(F)c(Cl)cc4c3CCN2c2nc(C)c(F)c(C)n2)c(F)c1F (stereo not shown) [Compound 143, 6-chloro-1-(2,3-difluoro-4-methylphenyl)-7-fluoro-2-(5-fluoro-4,6-dimethylpyrimidin-2-yl)-2,3,4,9-tetrahydro-1H-pyrido[3,4-b]indole]	1.2 nM
Fc1cncc(C2c3[nH]c4cc(F)c(Cl)cc4c3CCN2c2nccc(C(F)(F)F)n2)c1 (stereo not shown) [Compound 145, 6-chloro-7-fluoro-1-(5-fluoropyridin-3-yl)-2-[4-(trifluoromethyl)pyrimidin-2-yl]-2,3,4,9-tetrahydro-1H-pyrido[3,4-b]indole]	17.2 nM
Fc1cncc(C2c3[nH]c4ccc(Cl)c(F)c4c3CCN2c2nccc(C(F)(F)F)n2)c1 (stereo not shown) [Compound 146, 6-chloro-5-fluoro-1-(5-fluoropyridin-3-yl)-2-[4-(trifluoromethyl)pyrimidin-2-yl]-2,3,4,9-tetrahydro-1H-pyrido[3,4-b]indole]	11.4 nM

SMILES	IC50
Cc1cc(C(F)(F)F)nc(N2CCc3c([nH]c4cc(F)c(Cl)cc34)C2c2cccc(F)c2F)n1 (stereo not shown) [Compound 147, 6-chloro-1-(2,3-difluorophenyl)-7-fluoro-2-[4-methyl-6-(trifluoromethyl)pyrimidin-2-yl]-2,3,4,9-tetrahydro-1H-pyrido[3,4-b]indole]	1.3 nM
Cc1cc(C(F)(F)F)nc(N2CCc3c([nH]c4cc(F)c(Cl)cc34)C2c2ccc(C)c(F)c2F)n1 (stereo not shown) [Compound 148, 6-chloro-1-(2,3-difluoro-4-methylphenyl)-7-fluoro-2-[4-methyl-6-(trifluoromethyl)pyrimidin-2-yl]-2,3,4,9-tetrahydro-1H-pyrido[3,4-b]indole]	0.9 nM
NS(=O)(=O)c1ccc(C2c3[nH]c4ccc(Cl)c(F)c4c3CCN2c2nccc(C(F)(F)F)n2)cc1 (stereo not shown) [Compound 150, 4-{6-chloro-5-fluoro-2-[4-(trifluoromethyl)pyrimidin-2-yl]-2,3,4,9-tetrahydro-1H-pyrido[3,4-b]indol-1-yl}benzene-1-sulfonamide]	8.9 nM
Cc1ccc(C2c3[nH]c4cc(F)c(Cl)cc4c3CCN2c2nc(C)cc(C#N)n2)cc1 (stereo not shown) [Compound 151, 2-[6-chloro-7-fluoro-1-(4-methylphenyl)-1,3,4,9-tetrahydro-2H-pyrido[3,4-b]indol-2-yl]-6-methylpyrimidine-4-carbonitrile]	4.5 nM
Cc1cc(C#N)nc(N2CCc3c([nH]c4cc(F)c(Cl)cc34)C2c2cccc(F)c2F)n1 (stereo not shown) [Compound 152, 2-[6-chloro-1-(2,3-difluorophenyl)-7-fluoro-1,3,4,9-tetrahydro-2H-pyrido[3,4-b]indol-2-yl]-6-methylpyrimidine-4-carbonitrile]	3.7 nM
Cc1cc(C#N)nc(N2CCc3c([nH]c4cc(F)c(Cl)cc34)C2c2ccc(C)c(F)c2F)n1 (stereo not shown) [Compound 153, 2-[6-chloro-1-(2,3-difluoro-4-methylphenyl)-7-fluoro-1,3,4,9-tetrahydro-2H-pyrido[3,4-b]indol-2-yl]-6-methylpyrimidine-4-carbonitrile]	1.1 nM
Cc1ccc(C2c3[nH]c4cc(F)c(Cl)cc4c3CCN2c2nc(C(F)(F)F)cc(C(F)(F)F)n2)cc1 (stereo not shown) [Compound 154, 2-[4,6-bis(trifluoromethyl)pyrimidin-2-yl]-6-chloro-7-fluoro-1-(4-methylphenyl)-2,3,4,9-tetrahydro-1H-pyrido[3,4-b]indole]	0.9 nM
Cc1ccc(C2c3[nH]c4cc(F)c(Cl)cc4c3CCN2c2nc(C(F)(F)F)cc(C(F)(F)F)n2)c(F)c1F (stereo not shown) [Compound 155, 2-[4,6-bis(trifluoromethyl)pyrimidin-2-yl]-6-chloro-1-(2,3-difluoro-4-methylphenyl)-7-fluoro-2,3,4,9-tetrahydro-1H-pyrido[3,4-b]indole]	0.5 nM
OCCCc1ccc(C2c3[nH]c4cc(F)c(Cl)cc4c3CCN2c2nccc(C(F)(F)F)n2)cc1 (stereo not shown) [Compound 156, 3-(4-{6-chloro-7-fluoro-2-[4-(trifluoromethyl)pyrimidin-2-yl]-2,3,4,9-tetrahydro-1H-pyrido[3,4-b]indol-1-yl}phenyl)propan-1-ol]	4 nM
CN(C)c1ncc(C2c3[nH]c4cc(F)c(Cl)cc4c3CCN2c2nccc(C(F)(F)F)n2)cc1F (stereo not shown) [Compound 158, 5-{6-chloro-7-fluoro-2-[4-(trifluoromethyl)pyrimidin-2-yl]-2,3,4,9-tetrahydro-1H-pyrido[3,4-b]indol-1-yl}-3-fluoro-N,N-dimethylpyridin-2-amine]	9.8 nM
OCCCc1ccc(C2c3[nH]c4cc(F)c(Cl)cc4c3CCN2c2ncc(F)cn2)cc1 (stereo not shown) [Compound 159, 3-{4-[6-chloro-7-fluoro-2-(5-fluoropyrimidin-2-yl)-2,3,4,9-tetrahydro-1H-pyrido[3,4-b]indol-1-yl]phenyl}propan-1-ol]	27.1 nM
CN(C)c1ncc(C2c3[nH]c4ccc(Cl)c(F)c4c3CCN2c2nccc(C(F)(F)F)n2)cc1F (stereo not shown) [Compound 160, 5-{6-chloro-5-fluoro-2-[4-(trifluoromethyl)pyrimidin-2-yl]-2,3,4,9-tetrahydro-1H-pyrido[3,4-b]indol-1-yl}-3-fluoro-N,N-dimethylpyridin-2-amine]	3.5 nM
Cc1ccc([C@H]2c3[nH]c4ccc(Cl)cc4c3CCN2c2nccc(C(F)(F)F)n2)cc1 [Compound 161, (1S)-6-chloro-1-(4-methylphenyl)-2-[4-(trifluoromethyl)pyrimidin-2-yl]-2,3,4,9-tetrahydro-1H-pyrido[3,4-b]indole]	1.2 nM
Cc1ccc(C2c3[nH]c4cc(F)c(Cl)cc4c3CCN2c2ncc(F)c(C#N)n2)c(F)c1F (stereo not shown) [Compound 162, 2-[6-chloro-1-(2,3-difluoro-4-methylphenyl)-7-fluoro-1,3,4,9-tetrahydro-2H-pyrido[3,4-b]indol-2-yl]-5-fluoropyrimidine-4-carbonitrile]	2.4 nM
Cc1ccc(C2c3[nH]c4cc(F)c(Cl)cc4c3CCN2c2nc(C)c(C)c(C)n2)cc1 (stereo not shown) [Compound 163, 6-chloro-7-fluoro-1-(4-methylphenyl)-2-(4,5,6-trimethylpyrimidin-2-yl)-2,3,4,9-tetrahydro-1H-pyrido[3,4-b]indole]	10.9 nM

Source: US20250186437A1, “CARBOLINE COMPOUNDS AND USE THEREOF” (PTC Therapeutics, Inc., priority 2021, published 2025)
